From patent US12629347B2, “Compounds and dosage regimen for use in the prevention or treatment of chronic inflammatory and/or autoimmune diseases” (Immunic AG, priority 2017, dated 2026)
Where two headings read alike, the source gives them in different places. Marks after values point to notes of the source that are not given here. One block for each compound: values may come before it.

Experiments:
[1] = Phase I SAD study: RBC in urine / hematuria; assay type: in vivo, human
Description: (§1) During the IMU-838 (vidofludimus-calcium) phase I SAD study (Immunic study number P1-IMU-838-SAD), urine was collected from all volunteers and tested with respect to the amount of clinical relevant anions, including urate and oxalate. In addition, formation of anion crystals in the urine was measured. In this study, IMU-838 was tested as a single dose applied to male healthy volunteers. Five different dose regimens were tested which covered four different doses of IMU-838: 10 mg, 20 mg, 30 mg and 40 mg of IMU-838 in fastened patients, which means no food intake 10 hours prior to the treatment and two hours after dose application. In addition, one dose group received 10 mg of IMU-838 in fed state which means that the 10 mg dose was applied after a high-fat breakfast. Each group consisted of six healthy volunteers, except for the 40 mg dose group with only five volunteers.
Treatment of humans with IMU-838 leads to dose dependent increase of urate excretion through the urine and thus to formation of urate (micro)crystals.

[2] = Phase I SAD study (P1-IMU-838-SAD): plasma concentration after single dose; assay type: in vivo; conditions: human, oral, read-out: maximum plasma concentrations (cmax)
[3] = Phase I SAD study: uric acid in 24 h collected urine; assay type: in vivo, human; conditions: for Uric acid, Pre dose (−24 h to 0): 24 h urine; for Increase of mean uric acid levels: post dose vs pre dose
Description: as §1
The pre-dose value was derived from urine collected 24 hours before application of IMU-838 tablets. The post dose value was obtained by collecting 24 hours urine starting 4 hours after intake of IMU-838.

[4] = Phase I MAD trial (P1-IMU-838-MAD): uric acid in 24 h urine, 14 days once daily without predosing; assay type: in vivo, human
Description: Each group consists of 16 patients with 12 individuals receiving active drug IMU-838 (either 30 or 40 mg per day) and 4 patients receiving placebo.
In a randomized, placebo controlled double blind clinical Phase I MAD trial (Immunic study number P1-IMU-838-MAD), IMU-838 was applied to healthy volunteers for 14 days in order to test the effects of IMU-838 on safety and biomarkers for repeated once daily doses over 14 days. In the first part of this study, 12 individuals were treated with 30 mg of IMU-838, 12 individuals were treated with 40 mg of IMU-838 and 8 individuals received placebo (4 individuals in each group). For all 32 individuals, urate levels in the urine was quantified in three periods of 24 hour urine collection. The first collection was at pre-dose (day 0). The second urine collection started four hours after intake of the first dose (day 1, 4 hours to 28 hours). The third collection of urine was performed on the last day of the 14 day treatment cycle (day 14, 4 hours to 28 hours). The amounts of uric acid at those timepoints is depicted in FIG. 2a.

[5] = Three week phase I trial with dose-in phase (25 mg then 50 mg): urate in 24 h urine; assay type: in vivo, human; conditions: all 20 subjects incl. placebo
Description: 8 individuals were treated with 25 mg for 7 days, followed by 14 day treatment with a dose of 50 mg once daily. Another 8 volunteers were treated with placebo (dose 1=0 mg) for 7 days followed by treatment of 50 mg IMU-838. 4 volunteers received placebo for the whole time.
Based on the observations on a) dose dependent effect of IMU-838 on urate levels in the urine and formation of small crystals (example 1) and b) the time course and dose dependence of urate level changes in single volunteers (example 2) a new therapeutic treatment scheme was invented. In this example a treatment scheme was applied to a three week clinical phase I trial consisting of two different doses “dose 1” of 25 mg daily dose and “dose 2” of 50 mg daily dose. 8 subjects received a lower dose 1 for 7 days followed by the higher (double) dose 2 for further 14 days, whereas another 8 subjects received placebo for 7 days then followed by treatment with the 50 mg high dose (dose 2). 4 subjects received placebo during the foll three week period. During this study urine was collected at four different timepoints (pre-dose, day 1, day 7, day 14) and analyzed for urate/uric acid levels.

[6] = Clinical study comparing treatment with and without pre-treatment phase: uric acid excreted in urine; assay type: in vivo, human; conditions: for Change in Median uric acid excreted in urine: Day 0 (first day of 50 mg dose), n 8
Text: A double-blind clinical study, Placebo controlled, Ascending Dose has been conducted. This study has been reported (Study Number P1-IMU-838-MAD).
Uric acid excretion in urine could be however modified with a pre-treatment period.

[7] = Clinical observations with vidofludimus: blood uric acid, urine RBC, hematuria; assay type: in vivo, human
Description: A novel class of compounds with an inhibitory effect on DHODH, in particular human DHODH, was found and described in EP 2 093 214 A1. Vidofludimus (CAS 717824-30-1) is the free acid of a compound according to formula (I) and is tested in clinical trials in human subjects. […] Higher dose means e.g. doses higher than […] once daily application of vidofludimus in humans. However, doses of compounds of formula (I), e.g. higher than 200 μmol once daily application, sometimes lead to undesirable side effects such as an increased risk of increased red blood cell count (RBC) in the urine (hematuria).
At high vidofludimus doses (i.e. ≥70 mg/day or single doses of ≥210 mg) a decrease in blood uric acid levels and an increase in urine red blood cell count were observed, in very rare cases, presenting as symptomatic hematuria during the first 7 days of treatment. Laboratory findings were consistent with post-renal events and de novo precipitates in the urinary tract.
A side effect that may also be termed adverse effect is a harmful and undesired effect resulting from medication during its use in the prevention and/or treatment of a patient with the inventive compound (I).

[8] = high doses, ≥70 mg/day or single doses of ≥210 mg

RBC (red blood cell count) in urine ([1]; single doses 10 to 40 mg): not leading to increase of RBC
Cmax ([2]; single dose 10 mg IMU-838, fasted male healthy volunteers): 1580 ng/mL
Cmax ([2]; male, single dose 40 mg IMU-838, fasted): 7860 ng/mL
Uric acid, Pre dose (−24 h to 0) ([3]; 10 mg fasted group, N = 6, baseline before dosing): 520 mg/24 h
Uric acid, Pre dose (−24 h to 0) ([3]; 40 mg fasted group, N = 4, baseline before dosing): 489^a mg/24 h
Uric acid, Post dose (4 to 28 h) ([3]; single dose 10 mg fasted, N = 6, 24 h urine): 637 mg/24 h
Increase of mean uric acid levels ([3]; single dose 10 mg fasted): 117 mg/24 h
Uric acid, Post dose (4 to 28 h) ([3]; single dose 40 mg fasted, N = 5, 24 h urine): 734 mg/24 h
Increase of mean uric acid levels ([3]; single dose 40 mg fasted): 245 mg/24 h
increase of uric acid compared with pre-treatment ([4]; 30 mg and 40 mg groups, after the full 14 days treatment): around 30%
amount of uric acid in 24 hour urine ([4]; 30 mg group, pre-dose (day 0) baseline): 605.9 mg
increase of uric acid in urine ([4]; 30 mg once daily, after 14 days vs pre-dose): 29%
increase of uric acid in urine at day one ([4]; 30 mg once daily, day 1 (4 to 28 hours)): no increase
amount of uric acid in 24 hour urine ([4]; 30 mg once daily, day 14): 686.2 mg
amount of uric acid in 24 hour urine ([4]; 40 mg group, pre-dose (day 0) baseline): 541.4 mg
amount of uric acid in 24 hour urine ([4]; 40 mg once daily, day 14): 699.3 mg
amount of uric acid in 24 hour urine ([4]; 40 mg once daily, first day (4-28 hours after intake)): 620.3 mg
increase of uric acid in urine ([4]; 40 mg once daily, first day (4-28 hours) vs pre-dose): 15.2%
mean 24 hours urinary urate level ([5]; after 1 day of treatment (4-28 hours)): 789.5 mg
mean increase in 24 hours urinary urate levels ([5]; after 1 day of treatment (4-28 hours), dose 1 25 mg): 15%
mean 24 hours urinary urate level ([5]; after three weeks (day 21)): 815.9 mg
overall increase of mean urinary urate level ([5]; day 21 vs first day of dose 2): 4%
mean 24 hours urinary urate level ([5]; first day of dose 2 50 mg (day 7 of the full trial)): 789.7 mg
mean 24 hours urinary urate level ([5]; pre-dose baseline): 684.1 mg
urinary excretion of uric acid after treatment initiation ([6]; P1-IMU-838-MAD dose groups): increased in all but the 30 mg group
Change in Median uric acid excreted in urine ([6]; Placebo pre-treatment then 50 mg): 86.5 mg/24 h
Change in Median uric acid excreted in urine ([6]; Pre-dosing 25 mg for 6 days then 50 mg): 49.5 mg/24 h
SMILES: COc1cccc(-c2ccc(NC(=O)C3=C(C(=O)O)CCC3)c(F)c2)c1 [IMU-838]
dose limiting side effects like hematuria ([1]; doses up to 40 mg of IMU-838): no dose limiting side effects like hematuria occurred

symptomatic hematuria ([7]; daily doses of 35 mg): no cases of symptomatic hematuria
blood uric acid levels [7, 8]: decrease
urine red blood cell count [7, 8]: increase
SMILES: COc1cccc(-c2ccc(NC(=O)C3=C(C(=O)O)CCC3)c(F)c2)c1 [vidofludimus]
